# Results as given in US12486218B2, “Compounds advantageous in the treatment of central nervous system diseases and disorders” (AurimMed Pharma, Inc., priority 2008, dated 2025).
# Read-outs that look alike come from different tables or passages of the source.
# Tests used:
# mice [1] = experiment: 6 Hz (minimal clonic seizure) model, mice i.p.; assay type: in vivo; conditions: for activity in the 6 Hz (minimal clonic seizure) model: mice; for 6 Hz (32 mA), fraction of animals: mice i.p.
# mice [2] = experiment: Maximal Electroshock Seizure (MES) test, mice i.p.; assay type: in vivo; conditions: for MES, fraction of animals: mice i.p.; for activity in the MES test: mice
# mice [3] = experiment: Subcutaneous Metrazol Seizure threshold (s.c. MET) test, mice i.p.; assay type: in vivo; conditions: for activity in the s.c. MET test: mice, at 300 mg/kg; for s.c. MET, fraction of animals: mice i.p.
# SMN2 promoter = SMN2 promoter β-lactamase reporter assay in NSC34 motor neuron-like cells; assay type: cell-based; conditions: for Promoter (SMN2 promoter test, summary YES/NO): Table 13 summary; for SMN2 promoter activity: treatment for 19 hours at a concentration of 1 μM
# Procedure: FIG. 30 illustrates a screen for SMN2 expression of a number of compounds described herein.
# SMN2 promoter activity was measured using NSC34 motor neuron-like cells stably transfected with a β-lactamase (BLA) reporter gene under the control of a 3.4-kilobase fragment of the SMN2 promoter. D156844 was used as a positive control for this assay.
# rats = experiment: Pilocarpine-induced Status Epilepticus in Rats (prevention; intervention @ 30 min); conditions: for Prevention, Protection: rats, pilocarpine-induced status epilepticus
# Procedure: The animal testing was performed using the protocols developed in the Anticonvulsant Screening Program (ASP) at the National Institute of Neurological Disorders and Stroke (NINDS), National Institutes of Health (NIH).
# [4] = Rattus norvegicus, read-out: Prevention, Protection
# [5] = Rattus norvegicus, 0.5 h, read-out: Intervention @ 30 min, Protection
compound,measurement,setting,value
"CC(C)C[C@H](NC(=O)[C@@H]1C[C@H]1c1ccccc1)C(N)=O (mixture of isomers) [Compound Q, trans-2-Phenylcyclopropane-carboxylic acid-((S)-1-carbamoyl-3-methylbutyl)amide]",activity in the 6 Hz (minimal clonic seizure) model,mice [1]; at 300 mg/kg,activity
"CC(C)C[C@@H](NC(=O)CC(C)c1ccc(OC(F)(F)F)cc1)C(N)=O (stereo partly drawn) [BP, (R)-4-Methyl-2-[3-(4-trifluoromethoxy-phenyl)-butyrylamino]-pentanoic acid amide]","6 Hz (32 mA), fraction of animals",mice [1]; 100 mg/kg @ 0.25 hr,1/4 @ 0.25
"CC[C@H](NC(=O)[C@@H]1C[C@H]1c1ccccc1)C(N)=O (mixture of isomers) [Compound Q-1, trans-2-Phenylcyclopropane-carboxylic acid-((S)-1-carbamoyl-propyl)amide]","MES, fraction of animals",mice [2]; 100 mg/kg @ 0.5 hr,2/3
same,"MES, fraction of animals",mice [2]; 100 mg/kg @ 4.0 hr,1/3
same,activity in the MES test,mice [2]; at 300 mg/kg,activity
same,activity in the s.c. MET test,mice [3],activity
same,"6 Hz (32 mA), fraction of animals",mice [1]; 50 mg/kg @ 0.25 hr,1/4 @0.25
same,"6 Hz (32 mA), fraction of animals",mice [1]; 100 mg/kg @ 0.25 hr,4/4
same,"6 Hz (32 mA), fraction of animals",mice [1]; 100 mg/kg @ 0.5 hr,3/4
same,"6 Hz (32 mA), fraction of animals",mice [1]; 100 mg/kg @ 1.0 hr,4/4
same,"6 Hz (32 mA), fraction of animals",mice [1]; 100 mg/kg @ 2.0 hr,1/4
same,activity in the 6 Hz (minimal clonic seizure) model,mice [1]; at 100 mg/kg,activity
CCOc1ccc(C(C)CC(N)=O)cc1 (racemic) [CA],activity in the 6 Hz (minimal clonic seizure) model,mice [1]; at 100 mg/kg,activity
same,"Promoter (SMN2 promoter test, summary YES/NO)",SMN2 promoter,YES
same,SMN2 promoter activity,SMN2 promoter,increased SMN2 promoter activity
same,"Prevention, Protection",rats; dose 600 mg/kg,100%
CC(C)Oc1ccc(C(C)CC(N)=O)cc1 (racemic) [CB],"MES, fraction of animals",mice [2]; 100 mg/kg @ 0.25 hr,3/3
same,"MES, fraction of animals",mice [2]; 100 mg/kg @ 1.0 hr,1/3
same,"Prevention, Protection",rats; dose 200 mg/kg,100%
"CCC(CC(N)=O)c1ccc(OC)cc1 (stereo not shown) [AB, 3-(4-Methoxy-phenyl)-pentanoicacid amide]",responders at 450 mg/kg,rats; [4],100%
"NC(=O)C1CC1(c1ccccc1)c1ccccc1 (stereo not shown) [BB, 2,2-Diphenyl-cyclopropanecarboxylicacid amide]",activity in the 6 Hz (minimal clonic seizure) model,mice [1]; at 100 mg/kg,activity
same,SMN2 promoter activity,SMN2 promoter,increased SMN2 promoter activity
"CC(O)(CC(N)=O)c1ccc(OC(F)(F)F)cc1 (stereo not shown) [Compound CC, 3-hydroxy-3-(4(trifluoromethoxy)-phenyl)butanamide]","MES, fraction of animals",mice [2]; 100 mg/kg @ 0.5 hr,3/3
same,"MES, fraction of animals",mice [2]; 100 mg/kg @ 4.0 hr,2/3
same,responders at 200 mg/kg,rats; [4],100%
"CC(C)c1ccc(C(C)CC(N)=O)cc1 (stereo not shown) [Compound AW, 3-(4-Isopropylphenyl)butyramide]",activity in the MES test,mice [2]; at 300 mg/kg,activity
same,"6 Hz (32 mA), fraction of animals",mice [1]; 200 mg/kg @ 0.25 hr,"4/4, 4/4 @"
same,"6 Hz (32 mA), fraction of animals",mice [1]; 200 mg/kg @ 0.5 hr,"4/4, 4/4 @"
same,activity in the 6 Hz (minimal clonic seizure) model,mice [1]; at 200 mg/kg,activity
same,SMN2 promoter activity,SMN2 promoter,increased SMN2 promoter activity
same,responders at 200 mg/kg,rats; [5],25%
same,responders at 450 mg/kg,rats; [4],75%
"CC(C)C(CC(N)=O)c1ccc(Cl)cc1 (stereo not shown) [AR, 3-(4-Chloro-phenyl)-4-methyl-pentanoic-acid-amide]",activity in the MES test,mice [2]; at 300 mg/kg,activity
same,activity in the s.c. MET test,mice [3],activity
same,"6 Hz (32 mA), fraction of animals",mice [1]; 100 mg/kg @ 0.25 hr,3/4
same,"6 Hz (32 mA), fraction of animals",mice [1]; 100 mg/kg @ 0.5 hr,2/4
same,"SMN2 promoter assay, evidence of activity (may warrant further study)",SMN2 promoter; NSC34 BLA reporter cells,show evidence of activity
"COc1ccc(C(C)CC(N)=O)cc1Cl (stereo not shown) [J, 3-(3-chloro-4-methoxy-phenyl)butyramide]",activity in the s.c. MET test,mice [3],activity
same,responders at 600 mg/kg,rats; [5],38%
same,responders at 600 mg/kg,rats; [4],75%
"CNC(=O)CC(C)c1ccc(OC(F)(F)F)cc1 (stereo not shown) [BC, N-Methyl-3-(4-trifluoromethoxyphenyl)-butyramide]",activity in the s.c. MET test,mice [3],activity
"CC(CC(N)=O)c1cccc(F)c1 (stereo not shown) [Compound D, 3-(3-Fluorophenyl)butyramide]",activity in the MES test,mice [2]; at 300 mg/kg,activity
same,activity in the s.c. MET test,mice [3],activity
same,responders at 400 mg/kg,rats; [5],75%
same,responders at 200 mg/kg,rats; [4],100%
Cc1nc2ccccc2nc1C(C)CC(N)=O (racemic) [DE],"6 Hz (32 mA), fraction of animals",mice [1]; 100 mg/kg @ 0.25 hr,1/4 @
same,"6 Hz (32 mA), fraction of animals",mice [1]; 100 mg/kg @ 0.5 hr,1/4 @
"CC(CC(=O)N[C@@H](C)C(N)=O)c1ccc(OC(F)(F)F)cc1 (stereo partly drawn) [BS, N-((S)-1-Carbamoyl-ethyl)-3-(4-trifluoromethoxy-phenyl)-butyramide]",activity in the MES test,mice [2]; at 300 mg/kg,activity
same,"6 Hz (32 mA), fraction of animals",mice [1]; 100 mg/kg @ 1.0 hr,1/4 @ 1.0
COc1ccc(C2(CC(N)=O)CCCC2)cc1 [AZ],SMN2 promoter activity,SMN2 promoter,increased SMN2 promoter activity
COc1ccc(C(C)CC(N)=O)cn1 (racemic) [CI],"6 Hz (32 mA), fraction of animals",mice [1]; 100 mg/kg @ 0.25 hr,1/4 @ 0.25 hr
"CC(CC(=O)N1CCOCC1)c1ccc(OC(F)(F)F)cc1 (stereo not shown) [BI, 1-Morpholin-4-yl-3-(4-trifluoromethoxy-phenyl)-butan-1-one]",activity in the s.c. MET test,mice [3],activity
same,"6 Hz (32 mA), fraction of animals",mice [1]; 50 mg/kg @ 0.25 hr,2/4
same,"6 Hz (32 mA), fraction of animals",mice [1]; 50 mg/kg @ 0.5 hr,1/4
"CC(CC(N)=O)Oc1ccc(C#N)cc1 (stereo not shown) [Compound O, 3-(4-Cyanophenoxy)butyramide]",responders at 450 mg/kg,rats; [4],50%
"CC(CC(=O)N1CCC(C(N)=O)CC1)c1ccc(OC(F)(F)F)cc1 (stereo not shown) [BN, 1-[3-(4-Trifluoromethoxy-phenyl)-butyryl]-piperidine-4carboxylic acidamide]",activity in the MES test,mice [2]; at 300 mg/kg,activity
same,"SMN2 promoter assay, evidence of activity (may warrant further study)",SMN2 promoter; NSC34 BLA reporter cells,show evidence of activity
Cc1cnc(C(C)CC(N)=O)c(C)n1 (racemic) [DD],"6 Hz (32 mA), fraction of animals",mice [1]; 100 mg/kg @ 0.5 hr,"1/4 @ 0.5 hr,"
same,"Promoter (SMN2 promoter test, summary YES/NO)",SMN2 promoter,YES
same,SMN2 promoter activity,SMN2 promoter,increased SMN2 promoter activity
"CC(CC(N)=O)c1ccc(Cl)c(Cl)c1 (stereo not shown) [BW, 3-[3,4-dichloro-phenyl]butyramide]","MES, fraction of animals",mice [2]; 100 mg/kg @ 0.5 hr,1/3 @
same,"s.c. MET, fraction of animals",mice [3]; 30 mg/kg @ 4.0 hr,1/1 @ 4.0
same,"s.c. MET, fraction of animals",mice [3]; 100 mg/kg @ 4.0 hr,1/1 @ 4.0
Cc1ccc(C(C)CC(N)=O)cn1 (racemic) [CH],"6 Hz (32 mA), fraction of animals",mice [1]; 50 mg/kg @ 0.25 hr,"1/4, 1/4"
same,"6 Hz (32 mA), fraction of animals",mice [1]; 50 mg/kg @ 0.5 hr,"1/4, 1/4"
"CC[C@H](NC(=O)CC(C)c1ccc(OC(F)(F)F)cc1)C(N)=O (stereo partly drawn) [BR, N-((S)-1-Carbamoyl-propyl)-3-(4-trifluoromethoxy-phenyl)-butyramide]",activity in the MES test,mice [2]; at 100 mg/kg,activity
same,"6 Hz (32 mA), fraction of animals",mice [1]; 100 mg/kg @ 0.5 hr,1/4 @ 0.5
CC(CC(N)=O)c1cnccn1 (racemic) [DC],"Promoter (SMN2 promoter test, summary YES/NO)",SMN2 promoter,YES
same,SMN2 promoter activity,SMN2 promoter,increased SMN2 promoter activity
"NC(=O)CC(c1ccc2c(c1)OCCO2)C1CC1 (stereo not shown) [AP, 3-Cyclopropyl-3-(2,3dihydro-benzo[1,4]dioxin-6-yl)propionamide]",activity in the MES test,mice [2]; at 300 mg/kg,activity
same,activity in the s.c. MET test,mice [3],activity
same,responders at 600 mg/kg,rats; [5],75%
same,responders at 450 mg/kg,rats; [4],75%
CCc1nccnc1C(C)CC(N)=O (racemic) [DB],"6 Hz (32 mA), fraction of animals",mice [1]; 100 mg/kg @ 4.0 hr,1/4 @ 4.0 hrs.
same,SMN2 promoter activity,SMN2 promoter,increased SMN2 promoter activity
Cc1ccc(C(C)CC(N)=O)c(C)n1 (racemic) [DF],"6 Hz (32 mA), fraction of animals",mice [1]; 100 mg/kg @ 2.0 hr,1/4 @ 2.0
same,"6 Hz (32 mA), fraction of animals",mice [1]; 100 mg/kg @ 4.0 hr,1/4 @ 2.0
"CC(CC(N)=O)c1ccc2c(c1)OCCO2 (stereo not shown) [K, 3-(3,4-ethylenedioxy-phenyl)butyramide]","SMN2 promoter assay, particularly strong hits",SMN2 promoter; NSC34 BLA reporter cells,particularly strong hits
same,"Promoter (SMN2 promoter test, summary YES/NO)",SMN2 promoter,YES
same,SMN2 promoter activity,SMN2 promoter,increased SMN2 promoter activity
same,responders at 600 mg/kg,rats; [5],38%
same,responders at 300 mg/kg,rats; [4],50%
"CCNC(=O)CC(C)c1ccc(OC(F)(F)F)cc1 (stereo not shown) [BF, N-Ethyl-3-(4-trifluoromethoxy-phenyl)-butyramide]",activity in the MES test,mice [2]; at 300 mg/kg,activity
same,activity in the s.c. MET test,mice [3],activity
same,"6 Hz (32 mA), fraction of animals",mice [1]; 100 mg/kg @ 0.25 hr,3/4
same,"6 Hz (32 mA), fraction of animals",mice [1]; 100 mg/kg @ 0.5 hr,4/4
same,"6 Hz (32 mA), fraction of animals",mice [1]; 100 mg/kg @ 1.0 hr,2/4
same,"6 Hz (32 mA), fraction of animals",mice [1]; 100 mg/kg @ 2.0 hr,3/4
same,responders at 200 mg/kg,rats; [4],88%
Cc1nccnc1C(C)CC(N)=O (racemic) [CZ],"6 Hz (32 mA), fraction of animals",mice [1]; 100 mg/kg @ 0.25 hr,1/4 @
same,"6 Hz (32 mA), fraction of animals",mice [1]; 100 mg/kg @ 0.5 hr,1/4 @
same,"6 Hz (32 mA), fraction of animals",mice [1]; 100 mg/kg @ 2.0 hr,hrs and 2/4
NC(=O)CC1(c2ccc(Cl)cc2)CCCCC1 [AK],"MES, fraction of animals",mice [2]; 100 mg/kg @ 0.25 hr,3/4
same,"MES, fraction of animals",mice [2]; 100 mg/kg @ 2.0 hr,1/4
same,"6 Hz (32 mA), fraction of animals",mice [1]; 100 mg/kg @ 0.25 hr,4/4
same,"6 Hz (32 mA), fraction of animals",mice [1]; 100 mg/kg @ 0.5 hr,3/4
same,"6 Hz (32 mA), fraction of animals",mice [1]; 100 mg/kg @ 1.0 hr,1/4 @
